Experimental data published in US10596169B2, “Cancer treatment with combination of plinabulin and taxane” (BeyondSpring Inc., priority 2013, dated 2020).

Key:
[1] = Example 3: clinical study, safety (docetaxel dose reduction, neutropenia rate, G-CSF use), Arm DN vs Arm D; assay type: in vivo, human (NSCLC patients)
Experimental: (§1) The investor applied the optimum plinabulin and docetaxel combination treatment schedule derived from MV522 animal studies in NSCLC patients. Patients received therapy on Day 1 and Day 8 in 3-week cycles. Therapy on Day 1 consisted of 75 mg/m^2 docetaxel administered via intravenous infusion (IV) over 1 hour, followed 2 hours later (from the time the docetaxel infusion begins) by 30 mg/m^2 plinabulin administered via intravenous infusion (IV) over 30 minutes. Therapy on Day 8 consisted of 20 mg/m^2 or 30 mg/m^2 plinabulin administered via intravenous infusion (IV) over 30 minutes.
(§2) This was an open-label study in patients with advanced NSCLC that had progressed after treatment with at least 1 chemotherapy regimen. Patients were randomized to receive either docetaxel plus plinabulin (DN) or docetaxel alone (75 mg/m^2) (D). 2 dosing cohorts were investigated: • 1) 30 mg/m^2 dosing cohort: Approximately 110 patients were to be randomized (1:1) to receive either docetaxel plus plinabulin at 30 mg/m^2 (DN 30 mg/m^2 arm) or docetaxel alone (D arm); • 2) 20 mg/m^2 dosing cohort: Approximately 57 patients were to be randomized (2:1) to receive either docetaxel plus plinabulin at 20 mg/m^2 (DN 20 mg/m^2 arm) or docetaxel (D arm) alone.
(§3) Patients received therapy on Day 1 and Day 8 in 3-week cycles.
(§4) Therapy on Day 1 consisted of 75 mg/m^2 docetaxel administered via intravenous infusion (IV) over 1 hour, followed 2 hours later (from the time the docetaxel infusion began) by placebo (Arm D) or 30 mg/m^2 or 20 mg/m^2 plinabulin (Arm DN) DN administered via intravenous infusion (IV) over 30 minutes. Oral dexamethasone (16 mg) was given the day prior to, the day of and the day following docetaxel infusion (Day 1). Therapy on Day 8 consisted of placebo (Arm D) or 30 mg/m^2 or 20 mg/m^2 plinabulin (Arm DN) administered via intravenous infusion (IV) over 30 minutes.
In patients experiencing drug related Grade >2 treatment emergent adverse events (except alopecia, anorexia, and fatigue) according to the CTCAE (v3.0) treatment may be delayed until the adverse event has recovered to <Grade 1.
The initial dose of plinabulin was 30 mg/m^2 or 20 mg/m^2. Dose adjustments depended on observed adverse events. Volume of administration varied based on assigned dose and patient body surface area. The clinical formulation were supplied as a concentrated solution in 40% Solutol® HS-15/60% propylene glycol in amber vials containing 80 mg of drug in 20 mL (4 mg/mL) and were stored at room temperature. Each vial was designated for single use. The correct volume of drug (at a concentration of 4 mg/mL in the vial) was diluted in dextrose 5% in water (D5W) at a dilution of 1:20 and administered IV peripherally or centrally. Infusion time may be increased as clinically indicated at the direction of the Sponsor. Plinabulin and placebo must be protected from light at all times including storage, dilution and administration. Plinabulin and placebo should be administered within 6 hours of dilution.
The initial dose of docetaxel was 75 mg/m^2. Dose adjustments depended on observed adverse events.
Comparisons were made of efficacy endpoints between Arm D and Arm DN. The primary efficacy endpoint is overall survival. Secondary endpoints include response rate, duration of response, quality of life, neutropenia rate and G-CSF usage. […]
All patients were evaluated for safety analysis if they received at least one dose of study drug. […]

[2] = system: stage IIIb/IV non-small cell lung cancer; assay: Example 3: clinical study, efficacy (overall survival, response rate), Arm DN vs Arm D; assay type: in vivo, human (NSCLC patients); settings: for OS / Response Rate: Arm DN (30 mg/m^2) vs Arm D
Experimental: as §1
To compare the overall survival of patients with NSCLC treated with docetaxel to patients treated with docetaxel+plinabulin.
Secondary: • 1. To compare the response rate, duration of response, 6-month survival, and progression free survival in patients with NSCLC treated with docetaxel to patients with docetaxel+plinabulin; • 2. To compare the safety and adverse events profile of docetaxel to docetaxel+plinabulin.
as §2, §3, §4
Patients with stage IIIb/IV non-small cell lung cancer that has progressed after treatment with at least one chemotherapy regimen.
Assessment of response to treatment occurred during the rest period of the second cycle (and approximately every 2 cycles thereafter).
Comparisons were made of efficacy endpoints between Arm D and Arm DN. The primary efficacy endpoint is overall survival. Secondary endpoints include response rate, duration of response, quality of life, neutropenia rate and G-CSF usage.
The distributions of overall survival and any other time-to-event endpoints were summarized using the Kaplan-Meier method. The log-rank test was used to compare the efficacy endpoints between treatment groups. All statistical tests were carried out using one-sided tests at the 5% level of significance. The primary objective of this trial is to assess the effect of the addition of plinabulin on overall survival.

SMILES: CC(=O)O[C@@]12CO[C@@H]1C[C@H](O)[C@@]1(C)C(=O)[C@H](O)C3=C(C)[C@@H](OC(=O)[C@H](O)[C@@H](NC(=O)OC(C)(C)C)c4ccccc4)C[C@@](O)([C@@H](OC(=O)c4ccccc4)[C@H]21)C3(C)C [Docetaxel, docetaxel]
- Patients requiring docetaxel dose reductions ([1]; 20 mg/m^2 plinabulin cohort and companion D arm): 22.2%
- Patients with docetaxel dose decrease from initial 75 mg/m^2 ([1]; 30 mg/m^2 plinabulin cohort and matched docetaxel alone arm): 18.2%
- Incidence of neutropenia ([1]; DN 20 mg/m^2 arm vs companion D arm): 22.2%
- Incidence of neutropenia ([1]; DN 30 mg/m^2 arm vs companion D arm): 36.4%
- Incidence of ≥Grade 3 neutropenia ([1]; pooled D arm (n=73)): 27.4%
- Overall survival (OS) ([2]; 30 mg/m^2 group, all patients, docetaxel 75 mg/m^2): 7.5 M
- OS ([2]; All Patients): 7.5 month
- Response Rate ([2]; All Patients): 14.5%
- OS ([2]; largest primary tumor >3 cm): 7.5 month
- Response Rate ([2]; largest primary tumor >3 cm): 13.9%
- OS ([2]; largest primary tumor >5 cm): 6.7 month
- Response Rate ([2]; largest primary tumor >5 cm): 15%
- OS ([2]; largest primary tumor >7 cm): 5.03 month
- Response Rate ([2]; largest primary tumor >7 cm): 20%
- OS ([2]; largest primary tumor ≤3 cm): 6.5 month
- Response Rate ([2]; largest primary tumor ≤3 cm): 15.8%
- Overall survival (OS) ([2]; subgroup all tumor <3 cm, plinabulin 30 mg/m^2): 6.47 M
- Overall survival (OS) ([2]; subgroup at least one tumor with diameter greater than 3 cm, plinabulin 30 mg/m^2): 7.8 M
